The values that follow come from patent US6908919B2, “Substituted polycyclic aryl and heteroaryl pyrazinones useful for selective inhibition of the coagulation cascade” (Pharmacia Corporation, priority 1999, dated 2005).

Molecules are shown by their SMILES.

In this assay the target is Human factor Xa (Homo sapiens, UniProt P00742). Description: Xa Assay. Format: biochemical. On the set-up: purchased Enzyme Research Laboratories, South Bend Ind.
Chain of Human factor Xa (P00742 41-179 limits assumed): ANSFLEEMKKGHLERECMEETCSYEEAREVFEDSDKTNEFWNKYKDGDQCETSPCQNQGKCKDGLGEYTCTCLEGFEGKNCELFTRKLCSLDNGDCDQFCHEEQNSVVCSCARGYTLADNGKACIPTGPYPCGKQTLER
Chain of Human factor Xa (P00742 235-488 limits assumed): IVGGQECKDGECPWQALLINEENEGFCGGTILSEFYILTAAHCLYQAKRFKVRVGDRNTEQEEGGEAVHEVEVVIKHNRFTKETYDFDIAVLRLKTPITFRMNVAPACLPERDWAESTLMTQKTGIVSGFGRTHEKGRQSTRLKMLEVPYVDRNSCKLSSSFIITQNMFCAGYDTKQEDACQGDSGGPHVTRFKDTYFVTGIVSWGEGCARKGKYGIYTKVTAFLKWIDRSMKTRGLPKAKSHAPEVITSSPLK

With `C[C@H](C(=O)NCc1ccc(C(=N)N)cc1)n1c(-c2ccccc2)c(Cl)nc(NCc2ccccc2)c1=O` [Example 1517-05], the “% Inhibition Factor Xa (30 µM)” value (at 30 µM inhibitor) turned out to be 0%. As to `CC(C)Nc1nc(Cl)c(-c2cccc(N)c2)n(CC(=O)NCc2ccc(C(=N)N)cc2F)c1=O` [1543-40], for the setting “at 30 µM”, the “% Inhibition Factor Xa (30 µM)” value is recorded as 10%.

As for `COC(=O)c1cccc(-c2c(Cl)nc(NC(C)C)c(=O)n2CC(=O)NCc2ccc(C(=N)N)cc2)c1` [Example 64], under “at 30 µM inhibitor”, the “% Inhibition Factor Xa (30 µM)” value came to 19%. Take `CC(C)Nc1nc(Cl)c(-c2cccc(N)c2)n(CC(=O)NCCc2ccc(C(=N)N)cc2)c1=O` [Example 62]: the “% Inhibition Factor Xa (30 µM)” value (at 30 µM inhibitor) came out at 10%. On the same count and under the same terms, as for `N=C(N)c1ccc(CNC(=O)Cn2c(-c3cccc(N)c3)c(Cl)nc(NCCc3ccccc3)c2=O)cc1` [Example 86], the figure is 26% @ 30; as for `N=C(N)c1ccc(CNC(=O)Cn2c(-c3ccccc3)c(Cl)nc(NC(c3ccccc3)c3ccccc3)c2=O)cc1` [1507-35], 28%. The same measure, in the same setting: as for `N=C(N)c1ccc(CNC(=O)Cn2c(-c3ccccc3)c(Cl)nc(NCc3c(F)cccc3F)c2=O)cc1` [1512-43], the figure is 9%.

In the case of `N=C(N)c1ccc(CNC(=O)Cn2c(-c3c(Cl)cccc3Cl)c(Cl)nc(NC3CCC3)c2=O)cc1` [Example 1517-12], the “% Inhibition Factor Xa (30 µM)” value (at 30 µM) was found to be 0%.

As for `N=C(N)c1ccc(CNC(=O)Cn2c(-c3c(Cl)cccc3Cl)c(Cl)nc(NCCc3ccccc3)c2=O)cc1` [Example 1517-18], the “% Inhibition Factor Xa (30 µM)” value (at 30 µM) was found to be 0%. The same measure, in the same setting: with `CC(CNc1nc(Cl)c(-c2cccc(N)c2)n(CC(=O)NCc2ccc(C(=N)N)cc2)c1=O)N(C)C` (stereo not shown) [1543-19] the figure was 11%. Consider `N=C(N)c1ccc(CNC(=O)Cn2c(-c3ccccc3O)c(Cl)nc(NC3CCC3)c2=O)cc1` [Example 66], for which the “% Inhibition Factor Xa (30 µM)” value (at 30 µM inhibitor) is 0%. Same read-out and setting: with `Cc1c(Cl)nc(NCCc2cccnc2)c(=O)n1CC(=O)NCc1ccc(C(=N)N)cc1` [1471-8] the figure was 27%. On the same count and under the same terms, as for `CN(C)CCNc1nc(Cl)c(-c2ccccc2)n(CC(=O)NCc2ccc(C(=N)N)cc2)c1=O` [1512-15], the figure is 6%; as for `CCc1c(Cl)nc(NCc2ccncc2)c(=O)n1CC(=O)NCc1ccc(C(=N)N)cc1` [1471-59], 0%. Still for that read-out and setting: as for `N=C(N)c1ccc(CNC(=O)Cn2c(-c3cccc(Cl)c3)c(Cl)nc(NCc3ccncc3)c2=O)cc1` [1471-27], the figure is 16%; as for `Cc1cccc(-c2c(Cl)nc(NCCc3ccccc3)c(=O)n2CC(=O)NCc2ccc(C(=N)N)cc2)c1` [Example 81], 33% @ 30. In the case of `N=C(N)c1ccc(CNC(=O)Cn2c(-c3ccccc3)c(Cl)nc(NC3CCCCC3)c2=O)cc1` [Example 1517-25], the “% Inhibition Factor Xa (30 µM)” value (at 30 µM) was found to be 0%. For the compound `N=C(N)c1ccc(CNC(=O)Cn2c(-c3ccccc3)c(Cl)nc(NCC(c3ccccc3)c3ccccc3)c2=O)cc1` [1507-09], the “% Inhibition Factor Xa (30 µM)” value (at 30 µM inhibitor) is 13%. Same read-out and setting: with `Cc1c(N)cccc1-c1cnc(NC(C)C)c(=O)n1CC(=O)NCc1ccc(C(=N)N)cc1` [Example 98] the figure was 10% @ 30. In the case of `CCCC(CCC)Nc1nc(Cl)c(-c2ccccc2)n(CC(=O)NCc2ccc(C(=N)N)cc2)c1=O` [Example 1517-26], the “% Inhibition Factor Xa (30 µM)” value (at 30 µM) is listed as 0%. For `CC(C)(C)CCNc1nc(Cl)c(-c2ccccc2)n(CC(=O)NCc2ccc(C(=N)N)cc2)c1=O` [Example 1517-41], for the setting “at 30 µM”, the “% Inhibition Factor Xa (30 µM)” value worked out at 0%. On to `N=C(N)c1ccc(CNC(=O)Cn2c(-c3cccc(Cl)c3)c(Cl)nc(NCc3ccccc3)c2=O)cc1` [Example 23], for which, under “at 30 µM inhibitor”, the “% Inhibition Factor Xa (30 µM)” value is reported as 38% @ 30. Still for that read-out and setting: with `N=C(N)c1ccc(CNC(=O)Cn2c(-c3ccccc3)c(Cl)nc(NC3CCS(=O)(=O)C3)c2=O)cc1` (stereo not shown) [1512-19] the figure was 3%.

Consider `N=C(N)c1ccc(CNC(=O)Cn2c(-c3ccc4c(c3)OCO4)c(Cl)nc(NCCc3ccncc3)c2=O)cc1` [1471-45], for which the “% Inhibition Factor Xa (30 µM)” value (at 30 µM inhibitor) turned out to be 24%. Still for that read-out and setting: with `COc1ccc(-c2c(Cl)nc(NCCc3ccc(Cl)cc3)c(=O)n2CC(=O)NCc2ccc(C(=N)N)cc2)cc1` [1471-34] the figure was 24%; with `N=C(N)c1ccc(CNC(=O)Cn2c(-c3ccsc3)c(Cl)nc(NC3CCC3)c2=O)cc1` [Example 1517-07], 0%. With `CSCC(C(=O)NCc1ccc(C(=N)N)cc1)n1c(-c2ccccc2)c(Cl)nc(NCCc2ccccc2)c1=O` (stereo not shown) [Example 1517-16], the “% Inhibition Factor Xa (30 µM)” value (at 30 µM) came out at 0%.

As for `CC(C)CNc1nc(Cl)c(-c2cccc(N)c2)n(CC(=O)NCc2ccc(C(=N)N)cc2F)c1=O` [1543-38], the “% Inhibition Factor Xa (30 µM)” value (at 30 µM) stood at 14%. With `N=C(N)c1ccc(CNC(=O)Cn2c(-c3ccccc3)c(Cl)nc(NCc3ccncc3)c2=O)cc1` [1471-11], the “% Inhibition Factor Xa (30 µM)” value (at 30 µM inhibitor) was 9%.

Consider `N=C(N)c1ccc(CNC(=O)Cn2c(-c3ccsc3)c(Cl)nc(NCCc3cccc(Cl)c3)c2=O)cc1` [Example 1517-19], for which the “% Inhibition Factor Xa (30 µM)” value (at 30 µM) is 0%. As to `CSCC(C(=O)NCc1ccc(C(=N)N)cc1)n1c(-c2ccccc2)c(Cl)nc(NCc2ccccc2)c1=O` (stereo not shown) [Example 1517-04], the “% Inhibition Factor Xa (30 µM)” value (at 30 µM inhibitor) is 0%.

As to `CC1CCCC(Nc2nc(Cl)c(-c3ccccc3)n(CC(=O)NCc3ccc(C(=N)N)cc3)c2=O)C1C` (stereo not shown) [1512-23], the “% Inhibition Factor Xa (30 µM)” value (at 30 µM inhibitor) is on record as 6%.

`N=C(N)c1ccc(CNC(=O)Cn2c(-c3ccccc3)c(Cl)nc(NCC3COc4ccccc4O3)c2=O)cc1` (stereo not shown) [1512-01]: the “% Inhibition Factor Xa (30 µM)” value (at 30 µM inhibitor) is listed as 4%.

Consider `N=C(N)c1ccc(CNC(=O)Cn2c(-c3ccc4c(c3)OCO4)c(Cl)nc(NCc3ccncc3)c2=O)cc1` [1471-43], for which, for the setting “at 30 µM inhibitor”, the “% Inhibition Factor Xa (30 µM)” value was determined as 18%. Same read-out and setting: as for `Nc1n[nH]c2cc(CNC(=O)Cn3c(-c4ccccc4)cnc(NCCc4ccccc4)c3=O)ccc12` [Example 39], the figure is 0%. On the same count and under the same terms, with `N=C(N)c1ccc(CNC(=O)Cn2c(-c3cccc(N)c3)c(Cl)nc(NC3CCC3)c2=O)cc1` [Example 90] the figure was 16% @ 30. With `N=C(N)c1ccc(CNC(=O)Cn2c(-c3cccc(Cl)c3)c(Cl)nc(NCCc3cccc(Cl)c3)c2=O)cc1` [1471-30], the “% Inhibition Factor Xa (30 µM)” value (at 30 µM inhibitor) was determined as 41%. For `Cc1c(Cl)nc(NCCc2ccc(Cl)cc2)c(=O)n1CC(=O)NCc1ccc(C(=N)N)cc1` [1471-2], the “% Inhibition Factor Xa (30 µM)” value (at 30 µM inhibitor) came to 10%.

Consider `N=C(N)c1ccc(CNC(=O)Cn2c(-c3cccc(N)c3)c(Cl)nc(NC3CCC3)c2=O)c(F)c1` [1543-39], for which the “% Inhibition Factor Xa (30 µM)” value (at 30 µM) came to 14%. Consider `N=C(N)c1ccc(CNC(=O)Cn2c(-c3ccccc3)c(Cl)nc(NCc3cc(C(F)(F)F)cc(C(F)(F)F)c3)c2=O)cc1` [1507-40], for which the “% Inhibition Factor Xa (30 µM)” value (at 30 µM inhibitor) came out at 11%.

On to `C[C@H](C(=O)NCc1ccc(C(=N)N)cc1)n1c(-c2ccccc2)c(Cl)nc(NCCc2ccccc2)c1=O` [Example 1517-17], for which, under “at 30 µM”, the “% Inhibition Factor Xa (30 µM)” value stood at 0%.

On to `CSc1ccc(N)cc1-c1c(Cl)nc(NC(C)C)c(=O)n1CC(=O)NCc1ccc(C(=N)N)cc1` [Example 76], for which the “% Inhibition Factor Xa (30 µM)” value (at 30 µM inhibitor) turned out to be 0%. Still for that read-out and setting: as for `Cc1c(Cl)nc(NCc2ccncc2)c(=O)n1CC(=O)NCc1ccc(C(=N)N)cc1` [1471-3], the figure is 0%; as for `N=C(N)NC/C=C\CNC(=O)Cn1c(-c2ccccc2)cnc(NCCc2ccccc2)c1=O` [Example 37], 0%; as for `N=C(N)c1ccc(CNC(=O)Cn2c(-c3ccccc3)c(Cl)nc(NC3CCC3)c2=O)cc1` [1507-21], 23%. Take `COc1ccc(CCNc2nc(Cl)c(-c3ccccc3)n(CC(=O)NCc3ccc(C(=N)N)cc3)c2=O)cc1OC` [1512-05]: the “% Inhibition Factor Xa (30 µM)” value (at 30 µM inhibitor) was 10%. On to `N=C(N)c1ccc(CNC(=O)Cn2c(-c3cccc(N)c3)c(Cl)nc(NC3CCCC3)c2=O)c(F)c1` [1543-34], for which the “% Inhibition Factor Xa (30 µM)” value (at 30 µM) stood at 20%. Same read-out and setting: as for `C[C@H](C(=O)NCc1ccc(C(=N)N)cc1)n1c(-c2ccccc2)c(Cl)nc(NCCc2cccc(Cl)c2)c1=O` [Example 1517-23], the figure is 0%.

On to `CSCC(C(=O)NCc1ccc(C(=N)N)cc1)n1c(-c2ccccc2)c(Cl)nc(NC2CCC2)c1=O` (stereo not shown) [Example 1517-10], for which the “% Inhibition Factor Xa (30 µM)” value (at 30 µM inhibitor) came out at 0%. Same read-out and setting: as for `N=C(N)c1ccc(CNC(=O)Cn2c(-c3ccccc3)c(Cl)nc(NCCCc3ccccc3)c2=O)cc1` [1512-06], the figure is 4%; as for `CCc1c(Cl)nc(NCCN2CCOCC2)c(=O)n1CC(=O)NCc1ccc(C(=N)N)cc1` [1471-60], 0%. `O=C(Cn1c(-c2ccc(-c3ccccc3)cc2)c(Cl)nc(NCCc2ccc(Cl)cc2)c1=O)NCCc1cccnc1` [Example E-0119]: the “% Inhibition Factor Xa (100 µM)” value amounted to 5%. Turning to `N=C(N)c1ccc(CNC(=O)Cn2c(-c3ccccc3)c(Cl)nc(NC3CCS(=O)(=O)C3)c2=O)cc1` (stereo not shown) [1507-36], the “% Inhibition Factor Xa (30 µM)” value (at 30 µM inhibitor) is on record as 0%. Still for that read-out and setting: with `N=C(N)c1ccc(CNC(=O)Cn2c(-c3ccccc3)c(Cl)nc(NCCCN3CCCC3=O)c2=O)cc1` [1507-19] the figure was 4%. With `N=C(N)c1ccc(CNC(=O)Cn2c(-c3cccc(N)c3)c(Cl)nc(NCCN3CCCC3)c2=O)cc1` [1543-03], the “% Inhibition Factor Xa (30 µM)” value (at 30 µM) is on record as 34%.

Turning to `Cc1c(Cl)nc(NCCc2ccncc2)c(=O)n1CC(=O)NCc1ccc(C(=N)N)cc1` [1471-5], the “% Inhibition Factor Xa (30 µM)” value (at 30 µM inhibitor) is 12%. As to `Cc1ccccc1-c1c(Cl)nc(NCCc2ccccc2)c(=O)n1CC(=O)NCc1ccc(C(=N)N)cc1` [Example 78], the “% Inhibition Factor Xa (30 µM)” value (at 30 µM inhibitor) stood at 16% @ 30. Regarding `CCNc1nc(Cl)c(-c2cccc(N)c2)n(CC(=O)NCc2ccc(C(=N)N)cc2F)c1=O` [1543-31], under “at 30 µM”, the “% Inhibition Factor Xa (30 µM)” value was 8%. With `C[C@@H](C(=O)NCc1ccc(C(=N)N)cc1)n1c(-c2ccccc2)c(Cl)nc(NCc2ccccc2)c1=O` [Example 1517-03], the “% Inhibition Factor Xa (30 µM)” value (at 30 µM inhibitor) is listed as 0%.

Take `N=C(N)c1ccc(CNC(=O)Cn2c(-c3ccccc3)c(Cl)nc(NCCCn3ccnc3)c2=O)cc1` [1507-05]: the “% Inhibition Factor Xa (30 µM)” value (at 30 µM inhibitor) stood at 10%.

Consider `N=C(N)c1ccc(CNC(=O)Cn2c(-c3ccccc3)c(Cl)nc(NCCc3ccncc3)c2=O)cc1` [1471-13], for which the “% Inhibition Factor Xa (30 µM)” value (at 30 µM inhibitor) is reported as 0%.
